Pest or weed control data for 31 compounds are collected here from patent US20230329236A1, “HERBICIDAL PYRIMIDINE DERIVATIVES” (MoA Technology Limited, priority 2020, published 2023).

What all share (conditions): 336 h, Table 3, post-emergence, 14±1 days post application
Experiment [1] concerns Echinochloa crus-gaffi (ECHCG). The experiment is described as follows: Post-emergence glasshouse test, visual injury, ECHCG. The class given is in vivo, Echinochloa crus-galli. The method in brief:
(§1)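 Plants raised in sandy loam soil were sprayed post-emergence at BBCH 12-14 with compound formulated in acetone/water (50:50) containing 0.5% Tween 20, applied at set rates in g/ha. After 14±1 days in a controlled glasshouse, damage was scored visually as percent injury versus untreated plots.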

Experiment [2] concerns Veronica persica (VERPE). The experiment is described as follows: Post-emergence glasshouse test, visual injury, VERPE. It is filed as in vivo. The gist of the method:
as §1

Experiment [3] relates to Amaranthus retroflexus (AMARE). The experiment is described as follows: Post-emergence glasshouse test, visual injury, AMARE. The class given is in vivo. The method in brief:
as §1

The test system of experiment [4] is Lolium multiflorum (LOLMU). The experiment is described as follows: Post-emergence glasshouse test, visual injury, LOLMU. The class given is in vivo. The method in brief:
as §1

Broadly, the pest or weed control is how far the test organism was held down. The low end stands for weak suppression, the high end for strong suppression. Consider `Cc1cc(-c2cnc(N3CCCC(O)C3)nc2C2CC2)on1` (centres unmarked) [Compound 57], for which the pest or weed control at 500 g/ha in experiment [1] stood at 50%; in experiment [2] it was 0%; in experiment [3], 70%; in experiment [4] it was 0%.

Take `COc1ccccc1CNc1ncc(-c2cc(C)no2)c(-c2ccc(C)o2)n1` [Compound 23]: the pest or weed control at 500 g/ha in experiment [1] was 50%; in experiment [2], 80%; in experiment [3], 70%; in experiment [4], 0%.

Take `Cc1cc(-c2cnc(NCc3cccnc3)nc2C(F)(F)F)on1` [Compound 111]: the pest or weed control at 125 g/ha in experiment [1] was determined as 0%; in experiment [2], 0%; in experiment [3] it was 0%; in experiment [4] it was 10%.

For the compound `Cc1cc(-c2cnc(NC3CCCC3)nc2C(F)(F)F)on1` [Compound 91], the pest or weed control at 125 g/ha in experiment [1] is 95%; in experiment [2] it was 99%; in experiment [3] it was 90%; in experiment [4] it was 80%.

On to `Cc1cc(-c2cnc(NCc3cccnc3)nc2C(C)(C)C)on1` [Compound 75], for which the pest or weed control at 500 g/ha in experiment [1] came out at 40%; in experiment [2] it was 90%; in experiment [3], 98%; in experiment [4], 70%.

Regarding `Cc1ccc(CNc2ncc(-c3cc(C)no3)c(C(C)C)n2)cc1` [Compound 100], the pest or weed control at 62 g/ha in experiment [1] came out at 80%; in experiment [2] it was 95%; in experiment [3] it was 80%; in experiment [4] it was 0%.

Regarding `Cc1cc(-c2cnc(NCc3ccncc3F)nc2C(C)C)on1` [Compound 95], the pest or weed control at 62 g/ha came out at 60% in experiment [1], 60% in experiment [2], 30% in experiment [3] and 30% in experiment [4].

Consider `Cc1cc(-c2cnc(NC(C)C)nc2C(C)C)on1` [Compound 83], for which the pest or weed control at 125 g/ha was found to be 70% in experiment [1], 70% in experiment [2], 95% in experiment [3] and 40% in experiment [4]. Moreover, the pest or weed control at 250 g/ha in experiment [1] stood at 100%; in experiment [2], 100%; in experiment [3], 98%; in experiment [4], 50%.

As for `Cc1cc(-c2cnc(NC3CCCCC3)nc2C(F)(F)F)on1` [Compound 125], the pest or weed control at 125 g/ha was determined as 50% in experiment [1], 0% in experiment [2], 70% in experiment [3] and 20% in experiment [4].

Take `Cc1cc(-c2cnc(NC3CCCC3)nc2C2CCC2)on1` [Compound 104]: the pest or weed control at 125 g/ha in experiment [1] came to 0%; in experiment [2] it was 60%; in experiment [3], 40%; in experiment [4] it was 0%.

As for `Cc1cc(-c2cnc(NCc3ccc(F)cn3)nc2C(C)C)on1` [Compound 96], the pest or weed control at 62 g/ha in experiment [1] was 40%; in experiment [2], 50%; in experiment [3] it was 50%; in experiment [4], 0%.

On to `Cc1cc(-c2cnc(NC(C)C)nc2-c2ccc(C)o2)on1` [Compound 51], for which the pest or weed control at 500 g/ha in experiment [1] was 70%; in experiment [2] it was 0%; in experiment [3], 0%; in experiment [4] it was 0%.

For `CCN(C)c1ncc(-c2cc(C)no2)c(C(C)C)n1` [Compound 1, N-ethyl-N-methyl-5-(3-methyl-1,2-oxazol-5-yl)-4-(propan-2-yl)pyrimidin-2-amine], the pest or weed control at 125 g/ha in experiment [1], in experiment [2], in experiment [3] and in experiment [4] was 0% throughout. Moreover, the pest or weed control at 500 g/ha in experiment [1] came out at 50%; in experiment [2], 90%; in experiment [3] it was 70%; in experiment [4], 0%.

With `COc1cc(CNc2ncc(-c3cc(C)no3)c(C(C)C)n2)cc(OC)c1` [Compound 15], the pest or weed control at 1000 g/ha in experiment [1] (1000 g/ha) turned out to be 30%; in experiment [2] (1000 g/ha), 100%; in experiment [3] (1000 g/ha), 60%; in experiment [4] (1000 g/ha), 0%.

In the case of `Cc1cc(-c2cnc(NCCn3nccc3C)nc2C(C)C)on1` [Compound 41], the pest or weed control at 500 g/ha in experiment [1] is 60%; in experiment [2] it was 50%; in experiment [3], 95%; in experiment [4] it was 30%.

On to `CCNc1ncc(-c2cc(C)no2)c(C(C)C)n1` [Compound 11], for which the pest or weed control at 250 g/ha in experiment [1] was determined as 80%; in experiment [2], 70%; in experiment [3], 100%; in experiment [4], 0%.

In the case of `Cc1cc(-c2cnc(N3CCC(C(N)=O)CC3)nc2C(C)(C)C)on1` [Compound 26], the pest or weed control at 500 g/ha in experiment [1] stood at 30%; in experiment [2], 60%; in experiment [3], 0%; in experiment [4], 0%.

For `Cc1cc(-c2cnc(NC3CC3)nc2C(F)(F)F)on1` [Compound 114], the pest or weed control at 125 g/ha in experiment [1] was 20%; in experiment [2], 70%; in experiment [3], 0%; in experiment [4] it was 0%.

Regarding `Cc1cc(-c2cnc(N3CCC(O)CC3)nc2C(C)C)on1` [Compound 76], the pest or weed control at 500 g/ha in experiment [1] worked out at 30%; in experiment [2] it was 0%; in experiment [3], 80%; in experiment [4], 0%.

With `Cc1cc(-c2cnc(NC3CCCC3)nc2C)on1` [Compound 92], the pest or weed control at 125 g/ha in experiment [1] is 50%; in experiment [2], 70%; in experiment [3], 90%; in experiment [4], 60%.

`Cc1cc(-c2cnc(NCc3ccc(Cl)cc3)nc2C(C)C)on1` [Compound 102]: the pest or weed control at 62 g/ha turned out to be 80% in experiment [1], 80% in experiment [2], 98% in experiment [3] and 20% in experiment [4]. Also, the pest or weed control at 125 g/ha in experiment [1] came out at 80%; in experiment [2] it was 100%; in experiment [3] it was 100%; in experiment [4] it was 40%.

Consider `Cc1cc(-c2cnc(N3CCCCC3)nc2-c2ccc(C)o2)on1` [Compound 79], for which the pest or weed control at 500 g/ha is 60% in experiment [1], 0% in experiment [2], 90% in experiment [3] and 30% in experiment [4].

Take `Cc1cc(-c2cnc(NCc3ccncc3)nc2-c2ccc(C)o2)on1` [Compound 21]: the pest or weed control at 500 g/ha in experiment [1] amounted to 20%; in experiment [2], 90%; in experiment [3] it was 50%; in experiment [4], 0%.

Turning to `Cc1cc(-c2cnc(NC3CC3)nc2C2CC2)on1` [Compound 84], the pest or weed control at 125 g/ha in experiment [1] turned out to be 90%; in experiment [2] it was 60%; in experiment [3] it was 60%; in experiment [4], 50%. In addition, the pest or weed control at 250 g/ha was 100% in experiment [1], 100% in experiment [2], 80% in experiment [3] and 70% in experiment [4].

For the compound `Cc1cc(-c2cnc(NCc3ccc(F)cc3)nc2C(F)F)on1` [Compound 120], the pest or weed control at 125 g/ha in experiment [1] came to 20%; in experiment [2], 40%; in experiment [3] it was 30%; in experiment [4], 0%.

Regarding `Cc1cc(-c2cnc(NCCN3CCCC3=O)nc2C2CC2)on1` [Compound 30], the pest or weed control at 500 g/ha turned out to be 70% in experiment [1], 0% in experiment [2], 60% in experiment [3] and 0% in experiment [4].

Consider `COCCCNc1ncc(-c2cc(C)no2)c(C(C)C)n1` [Compound 32], for which the pest or weed control at 500 g/ha is 100% in experiment [1], 90% in experiment [2], 90% in experiment [3] and 0% in experiment [4].

In the case of `Cc1cc(-c2cnc(NCc3ccc(F)cc3)nc2C)on1` [Compound 128], the pest or weed control at 125 g/ha in experiment [1] was found to be 30%; in experiment [2] it was 95%; in experiment [3] it was 95%; in experiment [4] it was 30%.

Take `Cc1cc(-c2cnc(NCc3cccc(C#N)c3)nc2C(C)C)on1` [Compound 97]: the pest or weed control at 62 g/ha is 70% in experiment [1], 70% in experiment [2], 50% in experiment [3] and 20% in experiment [4].

For `Cc1cc(-c2cnc(NCc3ccc(F)cc3)nc2C2CCC2)on1` [Compound 105], the pest or weed control at 125 g/ha is 0% in experiment [1], 50% in experiment [2], 30% in experiment [3] and 0% in experiment [4].

In the case of `Cc1cc(-c2cnc(N3CCCCCC3)nc2C(C)C)on1` [Compound 49], the pest or weed control at 500 g/ha in experiment [1] turned out to be 60%; in experiment [2], 30%; in experiment [3] it was 50%; in experiment [4] it was 0%.
